Measured values as given in patent US5912230A, “Anti-fungal and anti-bacterial histatin-based peptides” (priority 1998, dated 1999).
Where no end group is shown, it is not given here.

Experiments:
[1] = tested on: P. gingivalis hemagglutination of erythrocytes; assay: histatin peptide inhibition of hemagglutination assay; assay type: cell-based, Porphyromonas gingivalis; settings: for Hemagglutination: lowest dose (μM) at which hemagglutination was observed using P. Gingivalis: 2 hours at room temperature, visual examination
Method: The P. gingivalis strain of Section C.(1) was also used for the hemagglutination assays. The bacterial growth and culture conditions were also the same as those described in Section C.(1).
A classic assay was utilized to determine the hemagglutination potential of the P. gingivalis strain. Microorganisms were inoculated into BFB broth and cultured overnight, for approximately 24 hours at 37° C. under strictly anaerobic conditions with continuous agitation on a minishaker (IKA-Labortechnik, Staufen i. Br., Germany). The bacteria were harvested by centrifugatin at 3,000 r.p.m. for 20 min, at 4° C., washed twice in 0.01M phosphate buffered saline (PBS), pH 7.4, and suspended in the same buffer to an optical density of 1.0 at 550 nm. […] One ml of blood was drawn each time, washed twice in PBS at 1,000 r.p.m. for 10 min at 4° C. and suspended in the same buffer at a 2% (v/v) final concentration. Fifty μl of the bacterial suspension were serially diluted in PBS (two-fold steps) in a 96-well U-bottom microplate (Costar, Cambridge, Mass.). Fifty μl of the erythrocyte suspension were added to each well. Controls without bacteria or erythrocytes were included. The microplate was slightly shaken and incubated at room temperature for 2 hours. Visible examination on a white background was used to determine hemagglutination. The amount of hemagglutination was rated as none,(-), moderate (+/-), or strong (+). Erythrocytes in control wells with PBS precipitated to the center of the well, whereas erythrocyte-bacteria aggregates precipitated at the periphery of the bottom. The hemagglutination titer was expressed as the reciprocal of the highest dilution of the bacterial suspension providing visible hemagglutination.
Preparation of erythrocyte and bacterial suspensions were the same as for the hemagglutination assay. Fifty μl of histatin peptide solutions were diluted in PBS in a U-bottom microplate, at various two-fold concentrations with 600 nmole/ml being the highest. The bacterial concentration utilized was normally twice the minimal concentration which gave strong hemagglutination. Equal volumes of the bacterial suspension were poured into the wells containing the histatin peptides. Finally, 50 μl of erythrocyte suspension were added in each well. The microplate was slightly shaken and incubated at room temperature for 2 hours. Controls were made by replacement of the peptide dilutions with PBS only. The experiments were conducted at least twice. The lowest histatin peptide concentration without hemagglutination (complete inhibition) was determined upon visual examination. The highest final histatin peptide concentration utilized was 100 nmole/ml.

[2] = tested on: Porphyromonas gingivalis strain A7A1-28; assay: microdilution bacteriostatic assay (P. gingivalis growth inhibition); assay type: cell-based; settings: for P. gingivalis: % increase in time to reach mid logphase growth (0.2 OD): 2 mM dose
Method: (a) The bacteria used in one investigation, Porphyromonas gingivalis strain A7A1-28, is a typical key pathogenic organism associated with destructive periodontal diseases. The bacteria were multiply subcultured in Enriched Todd Hewitt broth (ETHB, Difco Lab., Detroit, Mich.). Microorganisms were stored in the same broths containing 20% and 50% glycerol, at -20° C. and -70° C., respectively. These served as stock cultures from which all preparations originated.
Working stock cultures were maintained by weekly transfer to Brain Heart Infusion Anaerobic Sheep Blood Agar plates (BHIA, Becton Dickinson and Co., Cockeysville, Md.), and Trypticase Soy Anaerobic Sheep Blood Agar plates (TSA, Becton Dickinson and Co., Cockeysville, Md.). Plates were incubated for 3 to 4 days under strictly anaerobic conditions. For the bacteriostatic assay, bacteria were collected from plates, inoculated into the aforementioned broth and grown at 37° C., under strictly anaerobic conditions for 24 to 48 hours.
A modification of the typical microdilution assay (Rotilie et al., 1975) for the determination of minimal inhibitory concentration (MIC) of antimicrobial agents was utilized to investigate the bacteriostatic activity of the peptides. A standardized bacterial inoculum (P. gingivalis) was exposed to serially diluted antimicrobial peptides in an enriched broth medium that was suitable for the growth of anaerobic bacteria. The test was adapted for use in the 96-well microtiter plates. […] The modification introduced here was based on the spectrophotometric reading of the microtiter plate after incubation.
Microorganisms from cultures maintained in the aforementioned plates were inoculated into 5 ml of the above-mentioned broths and cultured overnight at 37° C. under strictly anaerobic conditions with continuous agitation on a minishaker (IKA-Labortechnik, Staufen i. Br., Germany). The bacteria were grown until reaching the late log phase and were then suspended in the same broths to an optical density (O.D.) of 0.1 at 560 nm. The peptides were diluted in 0.01M phosphate buffered saline (PBS), pH 7. Forty μl aliquots of peptide dilutions were added in each well of a U-bottom microtiter plate (Costar, Cambridge, Mass.) to give final concentrations of 2000, 1000, 500 and 250 μM. Twenty μl of bacterial inoculum was added to all the wells. Finally, 100 μl of the suitable broth were added to each well. The optical density of the wells of the microtiter plate was determined using a microplate reader set at 550 nm and the plate was then incubated under strictly anaerobic conditions for 24 hours. Controls were made by replacing the peptide dilutions with PBS alone. After the incubation, the mixtures in each well were mixed manually to resuspend sedimented bacteria and the plate was read again. The experiments were conducted twice every time. The biologic activity was calculated according to the formula:
100-[[(Fin ODexp-In ODexp)/(Fin ODctr-In ODctr)]×100]
In addition, the % increase in time to reach midlog phase growth was calculated.
The data presentation represent the means (±SEM) of at least 2 separate experiments.

Substance	bacteria mediated hemagglutination inhibition, in words [1]	Hemagglutination: lowest dose (μM) at which hemagglutination was observed using P. Gingivalis [1]	P. gingivalis growth inhibition, in words [2]	P. gingivalis: % increase in time to reach mid logphase growth (0.2 OD) [2]
AKRHHGYKR [peptide 120]	bacteria mediated hemagglutination inhibition	50 µM	P. gingivalis growth inhibition	–
AKRHHGYKRKF [peptide 118]	bacteria mediated hemagglutination inhibition	6.25 µM	P. gingivalis growth inhibition	–
His 11: histatin 11 (SEQ ID NO: 11), subpeptide of peptide 113 (KRHHGYKR)	bacteria mediated hemagglutination inhibition	100 µM	P. gingivalis growth inhibition	–
AKRHHGYKRK [peptide 119]	bacteria mediated hemagglutination inhibition	25 µM	P. gingivalis growth inhibition	–
KRHHGYKRKF [peptide 129]	bacteria mediated hemagglutination inhibition	50 µM	P. gingivalis growth inhibition	15.4%
AKRHHGYKRKFH [peptide 113]	bacteria mediated hemagglutination inhibition	25 µM	P. gingivalis growth inhibition	34.95%
peptide 117: subpeptide of peptide 113 (SEQ ID NO: 19) (KRHHGYKRKFH)	bacteria mediated hemagglutination inhibition	–	P. gingivalis growth inhibition	–
